17 compounds from US6908919B2, “Substituted polycyclic aryl and heteroaryl pyrazinones useful for selective inhibition of the coagulation cascade” (Pharmacia Corporation, priority 1999, dated 2005) can be followed below.

What is called IC50 is the concentration needed to halve the response being measured. The inhibition is the relative decrease from the control value, in per cent.

In assay [1] the target is T1, recombinant soluble tissue factor and recombinant human factor VIIa (TF-VIIa) (Homo sapiens, UniProt P08709).
T1 construct: conversion of coagulation factor VII to VIIa by Xa; purchased American Diagnostica, Greenwich Conn; host or cells: VIIa purchased; soluble TF made in house in E. coli
T1 sequence (P08709 61-212 limits assumed): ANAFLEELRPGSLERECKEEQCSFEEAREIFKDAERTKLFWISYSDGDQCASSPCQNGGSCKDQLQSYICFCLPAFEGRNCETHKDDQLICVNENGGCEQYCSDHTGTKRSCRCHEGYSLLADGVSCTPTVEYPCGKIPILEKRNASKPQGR
T1 sequence (P08709 213-466 limits assumed): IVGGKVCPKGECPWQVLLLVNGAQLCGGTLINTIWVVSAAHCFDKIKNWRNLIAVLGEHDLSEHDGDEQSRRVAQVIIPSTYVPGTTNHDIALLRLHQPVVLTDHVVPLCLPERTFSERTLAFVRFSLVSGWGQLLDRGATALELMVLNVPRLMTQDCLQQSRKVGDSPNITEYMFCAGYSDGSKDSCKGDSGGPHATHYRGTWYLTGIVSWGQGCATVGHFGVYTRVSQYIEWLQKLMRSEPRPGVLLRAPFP
T1 sequence (P13726 33-251 partner limits assumed): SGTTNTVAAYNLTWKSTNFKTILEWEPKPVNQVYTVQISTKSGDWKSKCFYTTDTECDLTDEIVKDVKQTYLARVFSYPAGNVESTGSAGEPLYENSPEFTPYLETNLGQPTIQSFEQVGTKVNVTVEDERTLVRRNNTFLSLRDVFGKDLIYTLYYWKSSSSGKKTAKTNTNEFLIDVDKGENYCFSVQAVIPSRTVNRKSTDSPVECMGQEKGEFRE
The experiment in a line: TF-VIIa Assay. As to conditions: for IC50: read-out: IC50 TF-VIIa; for inhibition at 30 µM: 1 h. The class given is biochemical.

The next assay concerns the target Human thrombin (Homo sapiens, UniProt P00734). Description: biochemical. As to conditions: for inhibition at 100 µM: read-out: % Inhibition Thrombin II at 100 μM.
A further assay deals with Human factor Xa (Homo sapiens, UniProt P00742). Description: Xa Assay. In kind it is biochemical. On the set-up: purchased Enzyme Research Laboratories, South Bend Ind. The settings on record: for inhibition at 100 µM: at 100 μM inhibitor; for % Inhibition Factor Xa (30 µM): at 30 µM inhibitor.
Human factor Xa, sequence (P00742 41-179 limits assumed): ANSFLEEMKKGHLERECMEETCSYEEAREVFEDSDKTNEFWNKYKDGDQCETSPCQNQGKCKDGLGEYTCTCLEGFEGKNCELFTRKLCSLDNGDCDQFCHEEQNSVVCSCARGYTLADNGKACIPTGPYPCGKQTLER
Human factor Xa, sequence (P00742 235-488 limits assumed): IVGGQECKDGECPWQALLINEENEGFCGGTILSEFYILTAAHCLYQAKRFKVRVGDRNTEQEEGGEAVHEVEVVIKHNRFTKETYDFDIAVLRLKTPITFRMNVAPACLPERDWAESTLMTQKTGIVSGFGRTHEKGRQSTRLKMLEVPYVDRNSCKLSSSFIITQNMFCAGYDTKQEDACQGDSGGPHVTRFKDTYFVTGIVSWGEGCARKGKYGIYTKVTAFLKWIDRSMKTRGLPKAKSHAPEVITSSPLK

Structures are written as SMILES.

Turning to `CC(C)Nc1nc(Cl)c(-c2cc(N)cc(C(=O)NCc3cccc(C(F)(F)F)c3)c2)n(CC(=O)NCc2ccc(C(=N)N)cc2)c1=O` [Example 128-13], the half-maximal inhibitory concentration (IC50) in assay [1] is 0.0491 µM. Moreover, the inhibition at 100 µM is 36% on Human thrombin and 26% against Human factor Xa.

In the case of `Nc1cccc(-c2c(Cl)nc(NC3CCC3)c(=O)n2CC(=O)NCc2ccc3ccnc(N)c3c2)c1` [Example 147], in assay [1] (at 30 µM inhibitor), the inhibition at 30 µM stood at 5%. Moreover, the IC50 at Human thrombin and against Human factor Xa was above 30 µM in each case.

Consider `N=C(N)c1ccc(CNC(=O)Cn2c(-c3ccc(N)cc3)c(Cl)nc(NC3CCC3)c2=O)cc1` [Example 115], for which the results for the IC50 (in assay [1]; on Human thrombin) were 0.55 µM and 7.5 µM, respectively. Further, the “% Inhibition Factor Xa (30 µM)” value on Human factor Xa amounted to 10%.

Regarding `N=C(N)c1ccc(CNCCn2c(-c3cccc(N)c3)c(Cl)nc(NC3CCC3)c2=O)cc1` [Example 139], the IC50 is 4.71 µM in assay [1] and 35.8 µM against Human thrombin. Besides, on Human factor Xa, 100 µM produced 41% inhibition.

Turning to `N=C(N)c1ccc(COCCn2c(-c3cccc(N)c3)c(Cl)nc(NC3CCC3)c2=O)cc1` [Example 140], the IC50 stood at 13.3 µM in assay [1] and 47.4 µM against Human thrombin. At 100 µM the inhibition on Human factor Xa was 24%.

With `CC(C)Nc1nc(Cl)c(-c2cc(N)cc(C(=O)NCc3cccc(F)c3)c2)n(CC(=O)NCc2ccc(C(=N)N)cc2)c1=O` [Example 128-12], in assay [1], the IC50 came to 0.011 µM. Moreover, the inhibition at 100 µM was 47% on Human thrombin and 33% against Human factor Xa.

As for `CC(C)Nc1nc(Cl)c(-c2cccc(N)c2)n(CC(=O)NNc2ccc(C(=N)N)cc2)c1=O` [Example 157], the results for the IC50 (in assay [1]; against Human thrombin; against Human factor Xa) were 0.7 µM, 35 µM and 64 µM, respectively.

For the compound `Nc1cccc(-c2c(Cl)nc(NC3CCC3)c(=O)n2CC(=O)NCc2ccc(-c3noc(=O)[nH]3)cc2)c1` [Example 152], in assay [1] (at 30 µM inhibitor), the inhibition at 30 µM was found to be 28%. The IC50 against Human thrombin and against Human factor Xa was above 30 µM each time.

Turning to `CC(C)Nc1nc(Cl)c(-c2cc(N)cc(C(=O)NCc3ccccc3C(F)(F)F)c2)n(CC(=O)NCc2ccc(C(=N)N)cc2)c1=O` [Example 128-11], in assay [1], the IC50 came to 0.0114 µM. In addition, the inhibition at 100 µM on Human thrombin is 46%; at Human factor Xa, 35%.

For `COC(=O)c1cccc(Sc2ccc(N)cc2-c2c(Cl)nc(NC(C)C)c(=O)n2CC(=O)NCc2ccc(C(=N)N)cc2)c1` [Example 112], the half-inhibitory concentration (IC50) is 0.27 µM in assay [1], 13 µM on Human thrombin and 35 µM on Human factor Xa.

Consider `CC(C)Nc1nc(Cl)c(-c2cc(N)cc(C(=O)NCc3cccnc3)c2)n(CC(=O)NCc2ccc(C(=N)N)cc2)c1=O` [Example 128-18], for which, in assay [1], the IC50 amounted to 0.0185 µM. At Human thrombin, the inhibition at 100 µM came to 21%.

Consider `Nc1cccc(-c2c(Cl)nc(NC3CCC3)c(=O)n2CC(=O)NCc2ccc3[nH]cnc3c2)c1` [Example 146], for which the IC50 against Human thrombin is above 30 µM. The “% Inhibition Factor Xa (30 µM)” value at Human factor Xa is 5%.

On to `N=C(N)c1ccc(CCC(=O)Cn2c(-c3cccc(N)c3)c(Cl)nc(NC3CCC3)c2=O)cc1` [Example 142], for which the IC50 was 0.2 µM in assay [1] and 4.6 µM against Human thrombin.

Regarding `N=C(N)c1ccc(CNC(=O)Cn2c(-c3ccccc3)c(Cl)nc(NCC(F)(F)F)c2=O)cc1` [1507-41], in assay [1] (at 30 µM inhibitor), the “% Inhibition TF-VIIa (30 µM)” value is reported as 48%. The “% Inhibition Factor Xa (30 µM)” value on Human factor Xa came to 17%.

For `CC(C)CNC(=O)c1cc(N)cc(-c2c(Cl)nc(NC(C)C)c(=O)n2CC(=O)NCc2ccc(C(=N)N)cc2)c1` [Example 128-14], in assay [1], the IC50 worked out at 0.0074 µM. For the same compound, the inhibition at 100 µM against Human factor Xa came to 24%.

For the compound `O=C(Cn1c(-c2ccc(-c3ccccc3)cc2)c(Cl)nc(NCCc2ccc(Cl)cc2)c1=O)NCCc1ccncc1` [Example E-0052], the “% Inhibition TF-VIIa (100 µM)” value in assay [1] is recorded as 0%. For the same compound, the “% Inhibition Factor Xa (100 µM)” value on Human factor Xa is 0%.

In the case of `O=C(Cn1c(-c2ccc(-c3ccccc3)cc2)c(Cl)nc(NCCc2ccc(Cl)cc2)c1=O)NCCc1ccncc1` [Example E-0118], the “% Inhibition TF-VIIa (100 µM)” value in assay [1] was 12%. The “% Inhibition Factor Xa (100 µM)” value at Human factor Xa is recorded as 3%.
